Measured values as given in patent publication US20110105494A1, “HETEROARYL SUBSTITUTED ARYLINDENOPYRIMIDINES AND THEIR USE AS HIGHLY SELECTIVE ADENOSINE A2A RECEPTOR ANTAGONISTS” (priority 2009, published 2011).
pIC50: −log10 of the molar value.

Columns and labels:
[1] = target: T1, human adenosine A2A receptor (Homo sapiens, UniProt P29274); assay: Adenosine A2A Receptor Functional Assay (A2AGAL2); format: cell-based; details: for pIC50: CHO-K1 cells overexpressing human A2A receptor, cAMP inducible beta-galactosidase reporter, antagonist mode vs 15 nM NECA challenge; for A1/A2A: selectivity ratio of A1Gal2 value to A2AGal2 value
T1 construct: expressed in transfected cells; host or cells: CHO-K1 cells with cAMP inducible beta-galactosidase reporter gene
T1 sequence (P29274 whole entry): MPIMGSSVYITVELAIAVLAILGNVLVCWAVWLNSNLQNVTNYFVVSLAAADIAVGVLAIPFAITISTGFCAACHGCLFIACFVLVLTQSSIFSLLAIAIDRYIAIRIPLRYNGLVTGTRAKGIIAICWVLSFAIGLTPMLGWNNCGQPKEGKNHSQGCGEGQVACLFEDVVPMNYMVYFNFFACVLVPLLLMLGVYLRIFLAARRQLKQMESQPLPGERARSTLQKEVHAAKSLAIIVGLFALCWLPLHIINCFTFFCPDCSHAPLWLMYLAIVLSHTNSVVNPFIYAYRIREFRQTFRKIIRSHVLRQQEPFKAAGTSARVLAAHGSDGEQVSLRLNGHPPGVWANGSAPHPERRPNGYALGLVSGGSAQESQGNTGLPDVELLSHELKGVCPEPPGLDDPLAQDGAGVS
Protocol: Adenosine A2A Receptor Functional Assay (A2AGAL2)
To initiate the functional assay, cryopreserved CHO—K1 cells overexpressing the human adenosine A2A receptor and containing a cAMP inducible beta-galactosidase reporter gene were thawed, centrifuged, DMSO containing media removed, and then seeded with fresh culture media into clear 384-well tissue culture treated plates (BD #353961) at a concentration of 10K cells/well. Prior to assay, these plates were cultured for two days at 37° C., 5% CO2, 90% Rh. On the day of the functional assay, culture media was removed and replaced with 45 μL assay medium (Hams/F-12 Modified (Mediatech #10-080CV) supplemented w/0.1% BSA). Test compounds were diluted and 11 point curves created at a 1000× concentration in 100% DMSO. Immediately after addition of assay media to the cell plates, 50 nL of the appropriate test compound antagonist or agonist control curves were added to cell plates using a Cartesian Hummingbird. Compound curves were allowed to incubate at room temperature on cell plates for approximately 15 minutes before addition of a 15 nM NECA (Sigma E2387) agonist challenge (5 μL volume). A control curve of NECA, a DMSO/Media control, and a single dose of Forskolin (Sigma F3917) were also included on each plate. After additions, cell plates were allowed to incubate at 37° C., 5% CO2, 90% Rh for 5.5-6 hours. After incubation, media were removed, and cell plates were washed 1×50 μL with DPBS w/o Ca & Mg (Mediatech 21-031-CV). Into dry wells, 20 μL of 1× Reporter Lysis Buffer (Promega E3971 (diluted in dH2O from 5× stock)) was added to each well and plates frozen at −20° C. overnight. For β-galactosidase enzyme colorimetric assay, plates were thawed out at room temperature and 20 μL 2× assay buffer (Promega) was added to each well. Color was allowed to develop at 37° C., 5% CO2, 90% Rh for 1-1.5 h or until reasonable signal appeared. The colorimetric reaction was stopped with the addition of 60 μL/well 1M sodium carbonate. Plates were counted at 405 nm on a SpectraMax Microplate Reader (Molecular Devices). Data was analyzed in Microsoft Excel and IC/EC50 curves were fit using a standardized macro.

[2] = target: T2, human adenosine A1 receptor (Homo sapiens, UniProt P30542); assay: Adenosine A1 Receptor Functional Assay (A1GAL2); format: cell-based; details: CHO-K1 cells overexpressing human A1 receptor, cAMP inducible beta-galactosidase reporter; antagonist mode vs 4 nM r-PIA/1 uM Forskolin challenge
T2 construct: expressed in transfected cells; host or cells: CHO-K1 cells with cAMP inducible beta-galactosidase reporter gene
T2 sequence (P30542 1-326): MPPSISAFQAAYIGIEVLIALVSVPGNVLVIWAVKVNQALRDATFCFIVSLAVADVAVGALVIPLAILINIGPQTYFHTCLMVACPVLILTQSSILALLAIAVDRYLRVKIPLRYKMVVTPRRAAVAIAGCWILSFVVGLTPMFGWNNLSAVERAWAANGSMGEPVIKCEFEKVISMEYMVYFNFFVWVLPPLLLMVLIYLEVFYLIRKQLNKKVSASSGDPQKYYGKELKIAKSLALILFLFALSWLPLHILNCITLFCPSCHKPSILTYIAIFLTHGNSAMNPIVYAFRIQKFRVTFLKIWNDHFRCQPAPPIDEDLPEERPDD
Protocol: Adenosine A1 Receptor Functional Assay (A1GAL2)
To initiate the functional assay, cryopreserved CHO—K1 cells overexpressing the human adenosine A1 receptor and containing a cAMP inducible beta-galactosidase reporter gene were thawed, centrifuged, DMSO containing media removed, and then seeded with fresh culture media into clear 384-well tissue culture treated plates (BD #353961) at a concentration of 10K cells/well. Prior to assay, these plates were cultured for two days at 37° C., 5% CO2, 90% Rh. On the day of the functional assay, culture media was removed and replaced with 45 μL assay medium (Hams/F-12 Modified (Mediatech # 10-080CV) supplemented w/0.1% BSA). Test compounds were diluted and 11 point curves created at a 1000× concentration in 100% DMSO. Immediately after addition of assay media to the cell plates, […] of the appropriate test compound antagonist or agonist control curves were added to cell plates using a Cartesian Hummingbird. Compound curves were allowed to incubate at room temperature on cell plates for approximately 15 minutes before addition of a 4 nM r-PIA (Sigma P4532)/1 uM Forskolin (Sigma F3917) agonist challenge (5 μL volume). A control curve of r-PIA in 1 uM Forskolin, a DMSO/Media control, and a single dose of Forskolin were also included on each plate. After additions, cell plates were allowed to incubate at 37° C., 5% CO2, 90% Rh for 5.5-6 hours. After incubation, media was removed, and cell plates were washed 1×50 μL with DPBS w/o Ca & Mg (Mediatech 21-031-CV). Into dry wells, 20 μL of 1× Reporter Lysis Buffer (Promega E3971 (diluted in dH2O from 5× stock)) was added to each well and plates frozen at −20° C. overnight. For β-galactosidase enzyme colorimetric assay, plates were thawed out at room temperature and 20 μL 2× assay buffer (Promega) was added to each well. Color was allowed to develop at 37° C., 5% CO2, 90% Rh for 1-1.5 h or until reasonable signal appeared. The colorimetric reaction was stopped with the addition of 60 μL/well 1M sodium carbonate. Plates were counted at 405 nm on a SpectraMax Microplate Reader (Molecular Devices). Data was analyzed in Microsoft Excel and IC/EC50 curves were fit using a standardized macro.

| SMILES | pIC50 [1] | A1/A2A [1] | pIC50 [2] |
| --- | --- | --- | --- |
| Cc1nc(-c2ccccc2)sc1-c1cccc2c1-c1nc(N)nc(-c3ccccc3)c1C2=O [Example 1, 2-Amino-9-(4-methyl-2-phenyl-thiazol-5-yl)-4-phenyl-indeno[1,2-d]pyrimidin-5-one] | 8.15 | 1056.34 | 5.12 |
| Nc1nc(-c2ccc(F)cc2)c2c(n1)-c1c(cccc1-c1cnn(CCN3CCOCC3)c1)C2=O [Example 2, 2-Amino-4-(4-fluoro-phenyl)-9-[1-(2-morpholin-4-yl-ethyl)-1H-pyrazol-4-yl]-indeno[1,2-d]pyrimidin-5-one] | 7.90 | 160.288 | 5.69 |
| Cc1nc(-c2ccc(C(F)(F)F)cc2)sc1-c1cccc2c1-c1nc(N)nc(-c3ccc(F)cc3)c1C2=O [Example 3, 2-Amino-4-(4-fluoro-phenyl)-9-[4-methyl-2-(4-trifluoromethyl-phenyl)-thiazol-5-yl]-indeno[1,2-d]pyrimidin-5-one] | 7.30 | 108 | 5.27 |
| N#Cc1ccc(-c2cccc3c2-c2nc(N)nc(-c4ccccc4)c2C3=O)s1 [Example 4, 5-(2-Amino-5-oxo-4-phenyl-5H-indeno[1,2-d]pyrimidin-9-yl)-thiophene-2-carbonitrile] | 8.89 | 92.3077 | 6.92 |
| Cc1nc(-c2ccccc2)sc1-c1cccc2c1-c1nc(N)nc(-c3ccc(F)cc3)c1C2=O [Example 5, 2-Amino-4-(4-fluoro-phenyl)-9-(4-methyl-2-phenyl-thiazol-5-yl)-indeno[1,2-d]pyrimidin-5-one] | 7.77 | – | 6.04 |
| CCOC(=O)Cn1cc(-c2cccc3c2-c2nc(N)nc(-c4ccc(F)cc4)c2C3=O)cn1 [Example 6, {4-[2-Amino-4-(4-fluoro-phenyl)-5-oxo-5H-indeno[1,2-d]pyrimidin-9-yl]-pyrazol-1-yl}-acetic acid ethyl ester] | 8.38 | 53.6847 | 6.65 |
| Cc1c(-c2cccc3c2-c2nc(N)nc(-c4ccccc4)c2C3=O)cnn1-c1ccccc1 [Example 7, 2-Amino-9-(5-methyl-1-phenyl-1H-pyrazol-4-yl)-4-phenyl-indeno [1,2-d]pyrimidin-5-one] | 7.77 | 51.1765 | 6.06 |
| Nc1nc(-c2ccccc2)c2c(n1)-c1c(cccc1-c1ccc(N3CCN(Cc4ccccc4)CC3)nc1)C2=O [Example 8, 2-Amino-9-[6-(4-benzyl-piperazin-1-yl)-pyridin-3-yl]-4-phenyl-indeno [1,2-d]pyrimidin-5-one] | 8.25 | 100 | 6.25 |
| Nc1nc(-c2ccc(F)cc2)c2c(n1)-c1c(cccc1-c1ccc(N3CCN(CC4CC4)CC3)nc1)C2=O [Example 9, 2-Amino-9-[6-(4-cyclopropylmethyl-piperazin-1-yl)-pyridin-3-yl]-4-(4-fluoro-phenyl)-indeno[1,2-d]pyrimidin-5-one] | 8.10 | 73.4177 | 6.24 |
| Cc1cc(-c2cccc3c2-c2nc(N)nc(-c4ccccc4)c2C3=O)cnc1N1CCN(C)CC1 [Example 10, 2-Amino-9-[5-methyl-6-(4-methyl-piperazin-1-yl)-pyridin-3-yl]-4-phenyl-indeno [1,2-d]pyrimidin-5-one] | 8.52 | 63.3333 | 6.72 |
| CC(C)CCN1CCN(c2ccc(-c3cccc4c3-c3nc(N)nc(-c5ccc(F)cc5)c3C4=O)cn2)CC1 [Example 11, 2-Amino-4-(4-fluoro-phenyl)-9-{6-[4-(3-methyl-butyl)-piperazin-1-yl]-pyridin-3-yl}-indeno[1,2-d]pyrimidin-5-one] | 7.74 | 55.5556 | 6.00 |
